The values that follow come from ChEMBL document CHEMBL1201862, “PubChem BioAssay data set” (2004).

Assay [1] is described as follows: viability of uninfected HEp-2 cells – cell-based, HTS, cytotoxicity control for RSV inhibitor project, dose response (AID 2410). It counts as functional. The note with it: human respiratory syncytial virus.
Assay [2] deals with T1, Ubiquitin-conjugating enzyme E2 N (Homo sapiens, UniProt P61088).
T1 sequence (P61088 whole entry): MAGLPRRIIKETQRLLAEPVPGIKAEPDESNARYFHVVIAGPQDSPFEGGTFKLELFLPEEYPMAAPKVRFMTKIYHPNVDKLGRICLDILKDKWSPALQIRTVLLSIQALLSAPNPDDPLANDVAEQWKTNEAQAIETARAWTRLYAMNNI
The assay is classed as functional.

The nature of assay [3]: microbe, parasite or virus in culture. The assay is classed as functional. Conditions: Mycobacterium tuberculosis.
In assay [4] the test system is INS1. As to the kind of experiment: INS-1E survival protection against cytokine death – cell-based, luminescence, retest, dose response (AID 449756).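 Also: cell death triggered by IL-1 beta plus TNF-alpha plus IFN-gamma mixture; protective hits raise ATP signal compared with cytokine alone wells.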 It counts as functional. The note with it: Rattus norvegicus.
The target of assay [5] is T2, Corticotropin-releasing factor receptor 2/Corticotropin-releasing factor-binding protein (Homo sapiens, UniProt P24387+Q13324).
T2 sequence (Q13324 whole entry): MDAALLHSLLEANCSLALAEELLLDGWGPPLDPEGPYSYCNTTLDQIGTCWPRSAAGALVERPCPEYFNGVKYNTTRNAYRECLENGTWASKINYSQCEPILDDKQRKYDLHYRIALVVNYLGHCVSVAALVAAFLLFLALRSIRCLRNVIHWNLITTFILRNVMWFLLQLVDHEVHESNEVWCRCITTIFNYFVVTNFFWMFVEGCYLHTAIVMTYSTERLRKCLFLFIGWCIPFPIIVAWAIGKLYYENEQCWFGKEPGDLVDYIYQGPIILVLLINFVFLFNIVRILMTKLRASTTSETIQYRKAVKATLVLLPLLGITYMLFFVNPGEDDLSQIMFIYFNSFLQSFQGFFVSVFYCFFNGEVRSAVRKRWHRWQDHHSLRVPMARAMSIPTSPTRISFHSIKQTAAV
T2 sequence (P24387 whole entry): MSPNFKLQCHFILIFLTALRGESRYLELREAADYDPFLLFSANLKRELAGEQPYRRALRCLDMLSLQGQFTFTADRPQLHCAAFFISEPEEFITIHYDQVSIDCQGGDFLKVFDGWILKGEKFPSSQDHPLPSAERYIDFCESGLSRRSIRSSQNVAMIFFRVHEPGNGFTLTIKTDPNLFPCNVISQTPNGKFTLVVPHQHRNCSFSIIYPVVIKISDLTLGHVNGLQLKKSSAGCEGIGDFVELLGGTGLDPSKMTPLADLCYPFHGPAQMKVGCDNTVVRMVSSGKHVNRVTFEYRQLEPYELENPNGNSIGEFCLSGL
As to the kind of experiment: Dose Response confirmation of uHTS hits for small molecule antagonists of the CRF-binding protein and CRF-R2 receptor complex. It counts as functional. The note with it: read-out: IC50_Mean.

In assay [6] the target is T2, Corticotropin-releasing factor receptor 2/Corticotropin-releasing factor-binding protein. Briefly: activators of CRF receptor 2 with binding protein – uHTS hits, confirmation (AID 602473). The assay is classed as functional. The note with it: read-out: EC50_Mean.
Assay [7] has as its system Streptococcus sp. 'group A'. As to the kind of experiment: Streptococcus pyogenes SK(-)GAS viability under kanamycin – luminescence, BacTiterGlo, confirmation, counter-screen for streptokinase expression inhibitor project, dose response (AID 1900). The assay is classed as functional, organism-based.
Assay [8] addresses T3, Streptokinase A (Streptococcus pyogenes serotype M1, UniProt P10520).
T3 sequence (P10520 whole entry): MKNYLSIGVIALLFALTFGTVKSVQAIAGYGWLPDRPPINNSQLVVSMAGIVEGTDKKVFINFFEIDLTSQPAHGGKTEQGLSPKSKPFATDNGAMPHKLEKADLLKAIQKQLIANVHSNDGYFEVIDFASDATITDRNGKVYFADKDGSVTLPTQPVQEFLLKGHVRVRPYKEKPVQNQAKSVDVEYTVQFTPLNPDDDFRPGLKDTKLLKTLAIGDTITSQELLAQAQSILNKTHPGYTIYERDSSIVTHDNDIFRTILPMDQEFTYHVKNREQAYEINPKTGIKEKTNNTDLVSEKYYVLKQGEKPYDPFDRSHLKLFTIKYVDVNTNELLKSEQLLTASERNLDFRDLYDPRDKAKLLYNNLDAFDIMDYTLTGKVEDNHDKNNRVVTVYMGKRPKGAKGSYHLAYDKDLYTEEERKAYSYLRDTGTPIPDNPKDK
Briefly: viability-normalized secreted streptokinase activity reduction – plasminogen activation absorbance, OD405, dose response (AID 1914).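 Also: secreted streptokinase activity via plasminogen activation per viability signal from cell pellet.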 The assay is classed as functional, Streptococcus pyogenes M1 GAS.

Assay [9] in a line: Trypanosoma cruzi growth suppression in host cells – NIH3T3 host cells, beta-gal luminescence, confirmation (AID 2044).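 Also: intracellular parasites grown in NIH/3T3 mouse fibroblasts as host cells; luminescent beta-galactosidase reporter signal from transgenic T. cruzi replicating inside host cells; inhibitors lower the luminescence signal.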 It counts as functional, cell-based.
Assay [10] is described as follows: NIH3T3 cell viability loss – ATP luminescence, mouse fibroblasts, counter-screen, dose response (AID 2010).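 Also: cells exposed to compound for about 90 hours before reading.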 It counts as functional, cell-based.
In assay [11] the test system is Streptococcus. Briefly: GAS UMAA2166 growth inhibition – luminescence, BacTiterGlo, counter-screen for streptokinase expression inhibitor project, dose response (AID 1915).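 Also: potency for reduction of bacterial viability or growth.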 It counts as functional, organism-based.
Assay [12] concerns the target T4, Fatty acid synthase (Homo sapiens, UniProt P49327). As to the kind of experiment: inhibition of human FAS-TE enzyme activity – biochemical, endpoint fluorescence intensity, uHTS hits, dose response (AID 624327).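 Also: fluorescence from hydrolysis of an O-methyl fluorescein acyl ester substrate by the enzyme.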 The assay is classed as functional.
In assay [13] the target is T4, Fatty acid synthase. Briefly: inhibition of human FAS-TE enzyme activity – biochemical, kinetic fluorescence intensity, dose response (AID 624326).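 Also: rate of fluorescence rise from hydrolysis of a fluorogenic O-methyl fluorescein ester substrate.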 It counts as functional.
Assay [14] concerns the target T5, Polyadenylate-binding protein 1 (Homo sapiens, UniProt P11940). As to the kind of experiment: MLLE binding blockers, Cy5 peptide tracer – biochemical, fluorescence polarization, Cy5-PAM2 peptide, secondary, miRNA deadenylation inhibitor project, dose response (AID 602260). It counts as functional. Conditions: read-out: IC50_Mean.
Assay [15] addresses T5, Polyadenylate-binding protein 1. As to the kind of experiment: MLLE domain peptide-binding blockers, IC50 – biochemical, fluorescence polarization, FITC-PAM2 peptide, dose response (AID 602259). Conditions: read-out: IC50_Mean. It counts as functional.
Assay [16] can be described thus: HIV-1 AD8 envelope cell-cell fusion blockers – cherry-pick, dose response (AID 652062).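 Also: luciferase signal from cell-cell fusion driven by HIV-1 clade B AD8 Env; potency is for inhibitors of fusion seen as a drop in luminescence.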 The assay is classed as functional, cell-based.

Each structure is given as a SMILES string. The source made the active and inactive calls.

T4 sequence (P49327 whole entry): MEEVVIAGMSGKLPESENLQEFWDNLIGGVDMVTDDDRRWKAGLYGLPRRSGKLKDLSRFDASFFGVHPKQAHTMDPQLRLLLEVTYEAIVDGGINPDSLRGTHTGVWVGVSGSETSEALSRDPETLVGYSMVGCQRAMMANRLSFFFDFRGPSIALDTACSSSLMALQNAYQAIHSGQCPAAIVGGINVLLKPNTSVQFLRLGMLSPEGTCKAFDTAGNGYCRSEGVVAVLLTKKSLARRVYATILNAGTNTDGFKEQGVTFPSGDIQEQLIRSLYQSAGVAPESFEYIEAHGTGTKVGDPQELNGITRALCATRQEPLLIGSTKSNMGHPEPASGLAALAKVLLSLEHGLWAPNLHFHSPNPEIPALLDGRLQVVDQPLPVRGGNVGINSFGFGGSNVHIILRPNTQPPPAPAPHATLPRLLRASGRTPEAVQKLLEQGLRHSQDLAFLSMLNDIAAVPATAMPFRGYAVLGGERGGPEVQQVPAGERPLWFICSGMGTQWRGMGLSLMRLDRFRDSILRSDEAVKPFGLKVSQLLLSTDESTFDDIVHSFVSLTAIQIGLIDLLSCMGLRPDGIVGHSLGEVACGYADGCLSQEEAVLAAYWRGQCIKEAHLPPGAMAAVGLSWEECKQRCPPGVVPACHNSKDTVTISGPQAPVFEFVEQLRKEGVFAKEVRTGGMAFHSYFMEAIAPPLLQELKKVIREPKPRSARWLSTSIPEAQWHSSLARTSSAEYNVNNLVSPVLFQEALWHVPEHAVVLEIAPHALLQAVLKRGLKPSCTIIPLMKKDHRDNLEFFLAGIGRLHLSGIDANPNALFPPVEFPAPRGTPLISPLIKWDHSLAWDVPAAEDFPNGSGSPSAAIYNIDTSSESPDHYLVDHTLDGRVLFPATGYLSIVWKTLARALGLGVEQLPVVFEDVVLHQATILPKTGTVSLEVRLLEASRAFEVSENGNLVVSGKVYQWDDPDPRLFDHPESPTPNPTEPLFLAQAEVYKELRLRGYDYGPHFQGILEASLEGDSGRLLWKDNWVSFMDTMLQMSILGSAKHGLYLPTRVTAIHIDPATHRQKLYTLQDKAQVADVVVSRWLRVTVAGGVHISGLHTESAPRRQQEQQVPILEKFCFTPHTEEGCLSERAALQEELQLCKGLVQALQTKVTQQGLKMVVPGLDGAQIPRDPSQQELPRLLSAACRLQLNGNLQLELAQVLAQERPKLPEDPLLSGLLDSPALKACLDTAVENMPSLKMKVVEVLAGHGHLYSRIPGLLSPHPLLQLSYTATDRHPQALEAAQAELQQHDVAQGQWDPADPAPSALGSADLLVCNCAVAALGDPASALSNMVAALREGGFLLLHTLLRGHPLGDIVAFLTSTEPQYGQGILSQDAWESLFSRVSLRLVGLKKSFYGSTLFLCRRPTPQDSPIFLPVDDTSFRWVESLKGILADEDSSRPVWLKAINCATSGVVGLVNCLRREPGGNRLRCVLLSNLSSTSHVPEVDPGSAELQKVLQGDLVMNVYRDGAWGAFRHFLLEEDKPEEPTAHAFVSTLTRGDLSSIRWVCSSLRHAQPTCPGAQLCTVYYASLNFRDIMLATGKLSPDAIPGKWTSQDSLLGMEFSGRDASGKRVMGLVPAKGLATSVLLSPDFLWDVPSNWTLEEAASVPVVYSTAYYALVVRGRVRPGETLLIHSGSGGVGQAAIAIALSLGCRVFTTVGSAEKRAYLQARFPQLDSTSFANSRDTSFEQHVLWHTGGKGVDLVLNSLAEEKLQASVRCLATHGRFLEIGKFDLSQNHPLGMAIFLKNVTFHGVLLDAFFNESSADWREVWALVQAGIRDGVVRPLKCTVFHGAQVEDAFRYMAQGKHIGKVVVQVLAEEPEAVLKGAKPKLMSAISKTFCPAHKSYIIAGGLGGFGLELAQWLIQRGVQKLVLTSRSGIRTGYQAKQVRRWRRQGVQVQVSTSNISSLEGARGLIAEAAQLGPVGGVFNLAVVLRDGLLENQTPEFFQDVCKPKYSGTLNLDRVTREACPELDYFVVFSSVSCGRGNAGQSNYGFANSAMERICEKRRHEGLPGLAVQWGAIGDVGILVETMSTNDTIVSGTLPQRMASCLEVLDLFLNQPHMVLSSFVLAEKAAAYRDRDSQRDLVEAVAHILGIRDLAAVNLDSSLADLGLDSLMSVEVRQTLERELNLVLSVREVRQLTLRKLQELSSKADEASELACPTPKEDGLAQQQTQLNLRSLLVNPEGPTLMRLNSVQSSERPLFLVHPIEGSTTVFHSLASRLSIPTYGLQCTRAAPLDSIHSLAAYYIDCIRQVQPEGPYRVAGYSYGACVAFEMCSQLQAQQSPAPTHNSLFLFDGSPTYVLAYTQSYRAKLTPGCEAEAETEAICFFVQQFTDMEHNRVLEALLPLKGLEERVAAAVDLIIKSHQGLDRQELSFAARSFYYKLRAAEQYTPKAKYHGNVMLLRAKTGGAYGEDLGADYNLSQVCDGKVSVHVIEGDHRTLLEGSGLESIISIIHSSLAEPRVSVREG
T5 sequence (P11940 whole entry, the tested form may be a part): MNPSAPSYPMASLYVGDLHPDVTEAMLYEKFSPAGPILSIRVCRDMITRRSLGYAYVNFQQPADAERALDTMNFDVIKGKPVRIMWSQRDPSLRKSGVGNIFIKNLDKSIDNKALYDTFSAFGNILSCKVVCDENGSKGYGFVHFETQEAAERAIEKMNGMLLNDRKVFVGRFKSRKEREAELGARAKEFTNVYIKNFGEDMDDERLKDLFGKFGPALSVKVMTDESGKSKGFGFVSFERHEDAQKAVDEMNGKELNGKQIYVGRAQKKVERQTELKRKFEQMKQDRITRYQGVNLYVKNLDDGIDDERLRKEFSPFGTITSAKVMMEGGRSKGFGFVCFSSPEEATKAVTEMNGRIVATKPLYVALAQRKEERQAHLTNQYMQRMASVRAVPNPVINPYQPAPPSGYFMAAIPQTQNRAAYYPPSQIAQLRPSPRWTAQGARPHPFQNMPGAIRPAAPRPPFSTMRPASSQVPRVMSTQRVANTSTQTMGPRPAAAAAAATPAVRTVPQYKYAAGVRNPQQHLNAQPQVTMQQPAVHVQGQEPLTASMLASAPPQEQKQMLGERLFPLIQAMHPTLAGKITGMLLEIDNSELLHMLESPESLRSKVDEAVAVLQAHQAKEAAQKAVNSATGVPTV

`CNCC(O)c1cc(OCc2ccccc2)c(OCc2ccccc2)cc1F` (stereo unspecified): the CC50 in [1] was 22.3 µM (active). In addition, the IC50 in [2] is > 20 µM (inactive).

Regarding `O=C1C=C(c2ccc3[nH]ccc3c2)C[C@@H](c2ccc(Cl)cc2)C1`, the CC50 in [3] is > 40 µM (active).

Turning to `CCCCCOc1ccc(NC2=CC(=O)CCC2)cc1`, the CC50 in assay [3] is > 40 µM (active).

Turning to `CC(=O)Cc1cc(O)c2ccccc2c1OC(=O)c1ccc(Br)cc1`, in [4], the AC50 is 14.9 µM (active). Besides, in assay [5], the IC50 was > 47.1 µM (inactive). For the same compound, the EC50 in [6] is > 53 µM (inactive).

In the case of `C=CCn1c(NC(=O)c2ccc(C)cc2)nc2ccccc21`, the EC50 in assay [7] was 84.6 µM (active); in [8], > 150 µM (not active); in [9] it was 2.11 µM (active); in assay [10] it was > 60 µM (not active); in assay [11], > 150 µM (not active). Moreover, the IC50 in assay [2] was > 20 µM (inactive).

Take `CCOC(=O)C1CCN(C(=O)COC(=O)c2cc([N+](=O)[O-])ccc2N2CCOCC2)CC1`: the IC50 in [12] was 4.15 µM (active); in assay [13], 7.1 µM (active).

With `COc1ccccc1S(=O)(=O)N1CCn2cccc2C1C` (stereo unspecified), the IC50 in assay [5] is > 47.1 µM (inactive). In addition, the EC50 in assay [6] was > 53 µM (inactive).

`CCN(CC)C(=O)CSc1nnc2nnc3cc(C)ccc3n12`: the IC50 in assay [14] is > 66 µM (inactive); in [15] it was 49.8 µM (inactive).

`Cc1nc(NC(=S)NC(=O)c2ccco2)sc1C(=O)N(C)C`: the IC50 in assay [14] and in assay [15] was > 66 µM (inactive) throughout.

With `N#Cc1c(N)nc(SC2CCCCC2=O)c(C#N)c1-c1ccco1` (stereo unspecified), the IC50 in [5] was < 0.368 µM (active). Also, in assay [6], the EC50 is > 53 µM (inactive).

As for `Cc1ccc(C(=O)NC(=S)Nc2ccc3[nH]c(O)nc3c2)c(C)c1`, the IC50 in assay [14] and in assay [15] was > 66 µM (inactive) throughout.

In the case of `Cn1cccc1Cc1nnc(SCC(=O)N2CCN(c3ccccc3)CC2)n1-c1ccc(F)cc1`, the IC50 in [5] was > 47.1 µM (inactive). Moreover, the EC50 in assay [6] is > 53 µM (inactive).

In the case of `CCc1ccc(S(=O)(=O)c2nnn3c2nc(N2CCOCC2)c2ccccc23)cc1`, the values for the IC50 in assay [12] and in [13] were 14.3 µM (active) and 6.03 µM (active), respectively.

On to `O=C(NC(=S)NCCO)c1cn(-c2ccccc2)nc1-c1ccccc1`, for which the IC50 in [14] and in [15] was > 66 µM (inactive) each time.

In the case of `O=S(=O)(Oc1ccccc1C(=S)N1CCOCC1)c1ccc(Cl)cc1`, the IC50 in assay [14] and in assay [15] was > 66 µM (inactive) in each case.

Regarding `O=S(=O)(c1cccs1)N1CCN(Cc2nc(O)c3cc(Br)cc(Br)c3n2)CC1`, the IC50 was 12.5 µM (active) in assay [12] and 9.03 µM (active) in assay [13].

Take `Cn1nc(C(C)(C)C)cc1NC(=O)Nc1cc(Cl)cc(Cl)c1`: in assay [3], the CC50 was 11.3 µM (active).

For `N#C/C(=C\c1cccn1-c1ccccc1)C(=O)NC1CCCCC1`, the IC50 in assay [5] was > 47.1 µM (inactive). The EC50 in [6] is > 53 µM (inactive).

On to `O=C(/C=C/c1cc([N+](=O)[O-])ccc1OC(F)F)NCc1ccc(Cl)cc1`, for which the IC50 in [12] was 0.351 µM (active); in assay [13], 0.413 µM (active).

In the case of `COc1ccc(NS(=O)(=O)c2ccc3c(c2)OCCO3)cc1OC`, the AC50 in assay [16] was 7.24 µM (active).

Take `N#Cc1ccc(CSc2ccc(S(=O)(=O)N3CCCC3)cn2)cc1`: the IC50 in [12] was 8.8 µM (active); in assay [13], 6.67 µM (active).

As for `COc1ccc(N=C(S)NC(NC(=O)c2ccc(Cl)cc2Cl)C(Cl)(Cl)Cl)c([N+](=O)[O-])c1` (stereo unspecified), the EC50 in [7] is 1.22 µM (active); in assay [8], 20.9 µM (active); in assay [11], > 150 µM (not active). Also, the IC50 in [14] and in [15] was > 66 µM (inactive) each time.

As for `Cc1c(OCC(=O)NCCN2CCOCC2)ccc2c3c(c(=O)oc12)CCC3`, in [5], the IC50 was > 47.1 µM (inactive). Besides, in assay [6], the EC50 is > 53 µM (inactive).

Regarding `CCCn1nc(C(=O)Nc2cc(S(=O)(=O)Nc3ccc(OC)cc3)ccc2O)c2ccccc2c1=O`, the IC50 in assay [5] is > 47.1 µM (inactive). Further, in assay [6], the EC50 was > 53 µM (inactive).

In the case of `Cn1nc(C(=O)O)c(=O)n(C)c1=O`, the IC50 in assay [14] and in [15] was > 66 µM (inactive) in each case.

Regarding `Cc1nnc(NC(=O)CSc2nnc(Cc3ccccc3)n2-c2ccccc2)s1`, the IC50 in assay [5] is > 47.1 µM (inactive). Also, the EC50 in assay [6] was > 53 µM (inactive).

`Cc1ccc(-n2ccnc(SCC(=O)NC3CCCCC3)c2=O)cc1F`: the IC50 in assay [14] and in assay [15] was > 66 µM (inactive) each time.

Regarding `O=C(CC(NC(=O)OCc1ccccc1)C(=O)OCc1ccccc1)OCc1ccccc1` (stereo unspecified), the IC50 in [5] is > 47.1 µM (inactive). Besides, the EC50 in [6] is > 53 µM (inactive).

As for `CCCCCC(=O)OCc1ccc(C2=CC(=O)CC(C)(C)C2=O)cc1`, the IC50 in assay [12] was 7.22 µM (active); in assay [13], 6.78 µM (active).

Take `COc1cccc(NC(=O)COc2c(F)c(F)c(C(F)(F)F)c(F)c2F)c1`: the IC50 was 12.2 µM (active) in [12] and 10.5 µM (active) in assay [13].

With `COc1cc(/C=N/c2c(C)cc(C)cc2C)ccc1OC(C)=O`, the IC50 in assay [5] was > 47.1 µM (inactive). In addition, the EC50 in assay [6] is > 53 µM (inactive).

Turning to `COCC(=O)Nc1ccc2c(c1)C(=O)N(C)C[C@@H](OC)[C@@H](C)CN(C)[C@H](C)CO2`, the half-maximal activity concentration (AC50) in assay [16] is 14.8 µM (active).

Turning to `O=C(CN(c1ccc(Cl)cc1)S(=O)(=O)c1ccccc1)N/N=C/c1ccco1`, the IC50 in assay [12] is 10.8 µM (active); in [13], 6.94 µM (active).

For the compound `Cc1ccc2nc(N=C(N)NC(=O)NC3CCCCC3)nc(C)c2c1`, the EC50 in assay [8] is 52.7 µM (active). Further, the IC50 in [2] is > 20 µM (inactive).
